The source of these data is article PMC6503653 (European journal of medicinal chemistry, 2018).

For series [1], the system named is E. coli and the human cytosolic A-site. Briefly: Selectivity factor, E. coli versus human cytosolic A-site. It counts as binding. To be noted: 5.75 × IC50(human)/IC50(E. coli); above 5.75 = selectivity to bacterial A-site.
The test system of series [2] is 4 MRSA NEO-resistant strains. Briefly: MIC against the MRSA NEO-resistant strains. Type of series: cell-based, Staphylococcus aureus.
Series [3] concerns the target APH(2″)-Ia (Staphylococcus aureus, UniProt P0A0C1). Description: AME modification of conjugates, APH. It counts as biochemical.
Series [4] relates to E. coli H4H. Description: MIC and growth inhibition, microdilution. To be noted: concentration not given. Type of series: cell-based, Escherichia coli.
Series [5] deals with rRNA A-site. Conditions: read-out: IC50, F-NEO screening test; range over rRNA A-sites; cited from earlier work.
Series [6] deals with L1-stage C. elegans. Briefly: Toxicity in C. elegans, MTT assay. Type of series: in vivo, Caenorhabditis elegans. To be noted: lowest concentrations used (3.13 – 1.56 μM), 24 h. In general terms: Tetrazolium dyes change colour on reduction, which living cells bring about.

As a reminder, the IC50 is the concentration that gives 50% inhibition.

APH(2″)-Ia, sequence (P0A0C1 whole entry): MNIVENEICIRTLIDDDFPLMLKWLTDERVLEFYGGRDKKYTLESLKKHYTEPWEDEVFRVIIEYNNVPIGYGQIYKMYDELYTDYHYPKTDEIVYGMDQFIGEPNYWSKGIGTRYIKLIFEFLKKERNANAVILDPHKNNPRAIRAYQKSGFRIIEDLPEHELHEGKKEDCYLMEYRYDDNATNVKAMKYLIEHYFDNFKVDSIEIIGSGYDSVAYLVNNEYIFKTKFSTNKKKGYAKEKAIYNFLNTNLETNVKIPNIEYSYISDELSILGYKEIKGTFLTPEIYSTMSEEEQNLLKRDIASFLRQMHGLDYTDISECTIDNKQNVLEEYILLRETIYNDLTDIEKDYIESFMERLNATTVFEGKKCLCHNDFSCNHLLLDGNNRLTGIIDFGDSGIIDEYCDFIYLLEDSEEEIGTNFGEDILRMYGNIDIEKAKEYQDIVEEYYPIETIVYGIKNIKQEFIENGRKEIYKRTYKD

Molecule `NC[C@@H]1O[C@H](O[C@H]2[C@@H](O)[C@H](O[C@@H]3[C@@H](O)[C@H](N)C[C@H](N)[C@H]3O[C@H]3O[C@H](CN)[C@@H](O)[C@H](O)[C@H]3N)O[C@@H]2CSCCNC(=O)CCc2ccc3ccc4cccc5ccc2c3c45)[C@H](N)[C@@H](O)[C@@H]1O` [Compound 14] gave a Selectivity factor in series [1] of 6.14.
In turn, `NC[C@@H]1O[C@H](O[C@H]2[C@@H](O)[C@H](O[C@@H]3[C@@H](O)[C@H](N)C[C@H](N)[C@H]3O[C@H]3O[C@H](CN)[C@@H](O)[C@H](O)[C@H]3N)O[C@@H]2CNC(=O)CCCc2ccc3ccc4cccc5ccc2c3c45)[C@H](N)[C@@H](O)[C@@H]1O` [Compound 12] gave a Selectivity factor in series [1] of 6.76. For the same molecule, in series [2], the “MIC values times lower than that of NEO” value is on record as 4-16 times.
`NC[C@@H]1O[C@H](O[C@H]2[C@@H](O)[C@H](O[C@@H]3[C@@H](O)[C@H](N)C[C@H](N)[C@H]3O[C@H]3O[C@H](CN)[C@@H](O)[C@H](O)[C@H]3N)O[C@@H]2CSCCNC(=O)CCCc2ccc3ccc4cccc5ccc2c3c45)[C@H](N)[C@@H](O)[C@@H]1O` [Compound 15] displayed a Selectivity factor in series [1] of 6.80. Further, the “modification by APH(2″)-Ia relative to NEO” value in series [3] is on record as “increased activity”. Also, the “reduction in growth / growth inhibition” value in series [4] is “* A 30% reduction in growth was observed for compounds 15 and 16 with E. coli H4H”. In addition, the “MIC values times lower than that of NEO” value in series [2] is given as 4-16 times.
As to `NC[C@@H]1O[C@H](O[C@H]2[C@@H](O)[C@H](O[C@@H]3[C@@H](O)[C@H](N)C[C@H](N)[C@H]3O[C@H]3O[C@H](CN)[C@@H](O)[C@H](O)[C@H]3N)O[C@@H]2CSCCNC(=S)NCCCCCCNC(=O)CCCc2ccc3ccc4cccc5ccc2c3c45)[C@H](N)[C@@H](O)[C@@H]1O` [Compound 16], in series [1], the Selectivity factor is 5.70. Further, in series [4], the “reduction in growth / growth inhibition” value is “* A 30% reduction in growth was observed for compounds 15 and 16 with E. coli H4H”. Further, in series [2], the “MIC values times lower than that of NEO” value was 4-16 times.
With `NC[C@@H]1O[C@H](O[C@H]2[C@@H](O)[C@H](O[C@@H]3[C@@H](O)[C@H](N)C[C@H](N)[C@H]3O[C@H]3O[C@H](CN)[C@@H](O)[C@H](O)[C@H]3N)O[C@@H]2CNC(=O)CCc2ccc3ccc4cccc5ccc2c3c45)[C@H](N)[C@@H](O)[C@@H]1O` [Compound 11], in series [1], the Selectivity factor stood at 8.29.
For `NC[C@@H]1O[C@H](O[C@H]2[C@@H](O)[C@H](O[C@@H]3[C@@H](O)[C@H](N)C[C@H](N)[C@H]3O[C@H]3O[C@H](CN)[C@@H](O)[C@H](O)[C@H]3N)O[C@@H]2CNC(=O)Cc2ccc3ccc4cccc5ccc2c3c45)[C@H](N)[C@@H](O)[C@@H]1O` [Compound 10], the Selectivity factor in series [1] came out at 7.12.
As for `NC[C@@H]1O[C@H](O[C@H]2[C@@H](O)[C@H](O[C@@H]3[C@@H](O)[C@H](N)C[C@H](N)[C@H]3O[C@H]3O[C@H](CN)[C@@H](O)[C@H](O)[C@H]3N)O[C@@H]2CO)[C@H](N)[C@@H](O)[C@@H]1O` [NEO, Neomycin B], the IC50 in series [5] was 68 to 114 nM. For the same molecule, the “toxicity / larvae viability compared with the untreated control” value in series [6] was “no significant difference”.
Turning to `NC[C@@H]1O[C@H](O[C@H]2[C@@H](O)[C@H](O[C@@H]3[C@@H](O)[C@H](N)C[C@H](N)[C@H]3O[C@H]3O[C@H](CN)[C@@H](O)[C@H](O)[C@H]3N)O[C@@H]2CSCCNC(=O)Cc2ccc3ccc4cccc5ccc2c3c45)[C@H](N)[C@@H](O)[C@@H]1O` [Compound 13], in series [1], the Selectivity factor amounted to 5.87. Besides, in series [2], the “MIC values times lower than that of NEO” value was 4-16 times.
